ChEMBL document CHEMBL1201862, “PubChem BioAssay data set” (2004)
The source made the active and inactive calls. For most assays here, no stated cut-off is given here; in the data, actives have a measured IC50 and inactives only a lower limit.

What was measured:
[1] = target: T1, Tyrosine-protein phosphatase non-receptor type 22 (Homo sapiens, UniProt Q9Y2R2); test: inhibition of lymphoid tyrosine phosphatase LYP – biochemical, pCAP fluorogenic substrate, fluorescence, set 3, SAR follow-up (AID 449727); type: functional
T1 sequence (Q9Y2R2 whole entry): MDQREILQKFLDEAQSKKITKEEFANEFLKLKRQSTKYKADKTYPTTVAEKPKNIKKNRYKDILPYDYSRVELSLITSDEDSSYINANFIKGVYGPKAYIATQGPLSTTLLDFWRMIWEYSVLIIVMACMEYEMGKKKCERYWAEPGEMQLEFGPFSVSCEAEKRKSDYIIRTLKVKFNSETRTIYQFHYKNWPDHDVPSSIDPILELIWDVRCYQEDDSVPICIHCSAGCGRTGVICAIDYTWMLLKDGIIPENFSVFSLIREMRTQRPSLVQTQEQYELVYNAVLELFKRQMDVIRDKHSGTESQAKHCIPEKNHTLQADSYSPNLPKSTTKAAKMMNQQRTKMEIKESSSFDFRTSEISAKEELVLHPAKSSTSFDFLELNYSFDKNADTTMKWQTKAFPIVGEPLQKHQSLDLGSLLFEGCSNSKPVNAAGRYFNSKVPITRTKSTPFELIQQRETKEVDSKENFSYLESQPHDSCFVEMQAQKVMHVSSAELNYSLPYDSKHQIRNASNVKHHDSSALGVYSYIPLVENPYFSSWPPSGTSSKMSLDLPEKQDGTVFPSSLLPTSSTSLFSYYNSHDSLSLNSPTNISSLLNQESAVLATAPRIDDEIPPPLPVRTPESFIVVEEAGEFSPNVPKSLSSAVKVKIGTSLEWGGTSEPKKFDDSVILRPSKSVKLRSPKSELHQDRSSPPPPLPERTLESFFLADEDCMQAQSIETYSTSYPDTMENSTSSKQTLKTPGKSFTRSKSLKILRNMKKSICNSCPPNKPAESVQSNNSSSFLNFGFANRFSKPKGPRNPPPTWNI

[2] = target: Tyrosine-protein phosphatase non-receptor type 12 (Homo sapiens, UniProt Q05209); test: SAR Selectivity Analysis of small molecule inhibitors of PEST using pCAP in a fluorescence assay. [Related pubchem assays (depositor defined):AID1779, AID1784, AID2135]; type: functional
Chain of Tyrosine-protein phosphatase non-receptor type 12 (Q05209 whole entry): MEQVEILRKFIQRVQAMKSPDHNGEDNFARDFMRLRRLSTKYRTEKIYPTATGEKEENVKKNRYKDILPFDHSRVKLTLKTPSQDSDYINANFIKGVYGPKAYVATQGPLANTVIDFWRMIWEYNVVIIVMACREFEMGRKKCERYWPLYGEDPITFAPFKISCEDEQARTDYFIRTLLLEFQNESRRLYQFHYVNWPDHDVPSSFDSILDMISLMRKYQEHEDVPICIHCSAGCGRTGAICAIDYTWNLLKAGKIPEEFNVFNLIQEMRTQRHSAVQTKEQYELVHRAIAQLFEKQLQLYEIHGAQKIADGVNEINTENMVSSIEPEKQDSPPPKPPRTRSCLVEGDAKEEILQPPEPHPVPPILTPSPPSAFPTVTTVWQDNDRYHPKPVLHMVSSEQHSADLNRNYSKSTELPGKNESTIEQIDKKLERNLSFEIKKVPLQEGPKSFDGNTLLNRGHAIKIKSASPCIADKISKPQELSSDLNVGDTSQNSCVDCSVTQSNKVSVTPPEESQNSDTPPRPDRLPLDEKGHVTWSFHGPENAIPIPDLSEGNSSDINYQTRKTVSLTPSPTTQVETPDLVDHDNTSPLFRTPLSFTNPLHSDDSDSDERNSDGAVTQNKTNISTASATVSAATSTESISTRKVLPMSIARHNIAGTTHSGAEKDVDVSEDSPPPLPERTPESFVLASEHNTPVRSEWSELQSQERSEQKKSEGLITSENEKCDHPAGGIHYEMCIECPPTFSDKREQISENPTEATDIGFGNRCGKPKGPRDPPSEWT

[3] = target: Eukaryotic translation initiation factor 4E (Mus musculus, UniProt P63073); test: blockers of eIF4G binding by eIF4E – biochemical, TR-FRET, dose response (AID 855); type: functional;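 further: potency for disrupting eIF4E binding to eIF4GI seen as loss of FRET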
Chain of Eukaryotic translation initiation factor 4E (P63073 whole entry): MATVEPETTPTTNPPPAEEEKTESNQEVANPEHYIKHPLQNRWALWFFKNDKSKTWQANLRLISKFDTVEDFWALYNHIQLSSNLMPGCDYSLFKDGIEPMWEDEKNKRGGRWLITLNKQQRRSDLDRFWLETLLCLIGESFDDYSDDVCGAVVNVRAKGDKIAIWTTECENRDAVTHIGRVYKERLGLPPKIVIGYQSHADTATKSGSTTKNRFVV

[4] = target: T2, Tyrosine-protein phosphatase non-receptor type 7 (Homo sapiens, UniProt P35236); test: inhibition of hematopoietic tyrosine phosphatase HePTP – biochemical, set 2, SAR follow-up (AID 449736); type: functional
T2 sequence (P35236 whole entry): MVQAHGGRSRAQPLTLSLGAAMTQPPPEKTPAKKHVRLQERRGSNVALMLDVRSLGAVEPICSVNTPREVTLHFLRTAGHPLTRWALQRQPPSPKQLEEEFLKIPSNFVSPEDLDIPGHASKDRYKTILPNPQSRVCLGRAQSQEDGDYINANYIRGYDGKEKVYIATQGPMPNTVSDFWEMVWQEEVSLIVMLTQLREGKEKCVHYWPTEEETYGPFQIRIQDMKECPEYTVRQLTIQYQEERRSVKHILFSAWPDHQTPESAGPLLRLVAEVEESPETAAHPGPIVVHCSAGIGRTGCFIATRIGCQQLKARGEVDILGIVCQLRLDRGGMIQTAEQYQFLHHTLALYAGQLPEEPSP

[5] = target: T1, Tyrosine-protein phosphatase non-receptor type 22; test: SAR LYP1 Fluorescent Assay using OMFP substrate for In Vitro dose response studies - Set 3. [Related pubchem assays (depositor defined):AID1779, AID1784, AID2140, AID2686]; type: functional
[6] = target: T3, Hexokinase HKDC1 (Homo sapiens, UniProt Q2TB90); test: activation of HKDC1 glucose phosphorylation – biochemical, W721R variant, dose response (AID 504730); type: functional
T3 sequence (Q2TB90 whole entry): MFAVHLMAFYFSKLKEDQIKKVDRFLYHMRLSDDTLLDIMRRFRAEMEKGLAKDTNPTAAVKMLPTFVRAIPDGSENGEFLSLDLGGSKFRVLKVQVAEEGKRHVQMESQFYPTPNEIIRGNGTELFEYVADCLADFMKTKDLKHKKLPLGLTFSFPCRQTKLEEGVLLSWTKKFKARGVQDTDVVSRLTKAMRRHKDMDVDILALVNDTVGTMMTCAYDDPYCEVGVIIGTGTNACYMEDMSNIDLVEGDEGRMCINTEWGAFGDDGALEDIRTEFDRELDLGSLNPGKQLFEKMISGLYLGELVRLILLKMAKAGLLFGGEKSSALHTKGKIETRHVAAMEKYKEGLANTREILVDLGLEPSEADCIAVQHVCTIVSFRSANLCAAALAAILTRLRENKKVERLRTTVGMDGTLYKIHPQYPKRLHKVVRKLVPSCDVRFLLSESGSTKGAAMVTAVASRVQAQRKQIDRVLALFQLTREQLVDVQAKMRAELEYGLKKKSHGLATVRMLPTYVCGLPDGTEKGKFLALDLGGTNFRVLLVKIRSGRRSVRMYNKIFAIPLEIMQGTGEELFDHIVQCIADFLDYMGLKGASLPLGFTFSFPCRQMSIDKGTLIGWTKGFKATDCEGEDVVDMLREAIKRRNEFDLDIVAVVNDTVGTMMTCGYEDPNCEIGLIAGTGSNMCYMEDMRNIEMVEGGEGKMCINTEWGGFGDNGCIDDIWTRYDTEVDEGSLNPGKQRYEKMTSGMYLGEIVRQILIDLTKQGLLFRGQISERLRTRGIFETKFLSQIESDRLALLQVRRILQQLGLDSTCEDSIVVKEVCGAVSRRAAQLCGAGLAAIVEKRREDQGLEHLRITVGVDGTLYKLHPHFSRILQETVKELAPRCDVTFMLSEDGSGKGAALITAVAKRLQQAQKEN

[7] = target: T4, Tyrosine-protein phosphatase non-receptor type 11 (Homo sapiens, UniProt Q06124); test: PTPN11 enzyme inhibitors – biochemical, selectivity assay for STEP inhibitor project, dose response (AID 602367); type: functional; conditions: read-out: IC50_Mean
T4 sequence (Q06124 whole entry): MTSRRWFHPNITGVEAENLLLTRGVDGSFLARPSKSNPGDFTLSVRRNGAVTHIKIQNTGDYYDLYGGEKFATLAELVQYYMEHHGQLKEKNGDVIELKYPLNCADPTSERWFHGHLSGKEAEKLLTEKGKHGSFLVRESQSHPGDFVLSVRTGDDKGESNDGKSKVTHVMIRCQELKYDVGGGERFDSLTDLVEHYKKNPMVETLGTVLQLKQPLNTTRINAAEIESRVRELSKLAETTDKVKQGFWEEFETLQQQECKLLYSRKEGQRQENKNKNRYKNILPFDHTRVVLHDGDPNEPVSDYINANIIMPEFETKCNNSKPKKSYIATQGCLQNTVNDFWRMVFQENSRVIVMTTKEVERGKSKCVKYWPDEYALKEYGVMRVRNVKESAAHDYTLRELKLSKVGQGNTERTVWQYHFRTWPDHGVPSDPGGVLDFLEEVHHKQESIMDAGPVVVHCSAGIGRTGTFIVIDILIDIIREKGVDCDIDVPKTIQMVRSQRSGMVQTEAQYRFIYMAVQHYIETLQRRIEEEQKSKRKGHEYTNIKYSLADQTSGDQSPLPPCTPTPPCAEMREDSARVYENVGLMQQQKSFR

[8] = target: Dual specificity protein phosphatase 3 (Homo sapiens, UniProt P51452); test: VHR phosphatase inhibition, dose response, selectivity assay for STEP inhibitor project, biochemical (AID 602374); type: functional; conditions: read-out: IC50_Mean
Chain of Dual specificity protein phosphatase 3 (P51452 whole entry): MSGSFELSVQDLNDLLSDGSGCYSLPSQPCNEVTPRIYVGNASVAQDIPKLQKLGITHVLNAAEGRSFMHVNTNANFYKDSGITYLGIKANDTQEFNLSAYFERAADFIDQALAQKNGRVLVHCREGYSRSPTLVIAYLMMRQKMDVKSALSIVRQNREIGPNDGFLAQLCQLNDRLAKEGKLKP

[9] = target: T5, SUMO-activating enzyme (Homo sapiens, UniProt Q9UBT2); test: blockers of UBC9-mediated SUMO conjugation – biochemical, AlphaScreen, SUMOylation inhibitor project, confirmation (AID 2018); type: functional
T5 sequence (Q9UBE0 whole entry): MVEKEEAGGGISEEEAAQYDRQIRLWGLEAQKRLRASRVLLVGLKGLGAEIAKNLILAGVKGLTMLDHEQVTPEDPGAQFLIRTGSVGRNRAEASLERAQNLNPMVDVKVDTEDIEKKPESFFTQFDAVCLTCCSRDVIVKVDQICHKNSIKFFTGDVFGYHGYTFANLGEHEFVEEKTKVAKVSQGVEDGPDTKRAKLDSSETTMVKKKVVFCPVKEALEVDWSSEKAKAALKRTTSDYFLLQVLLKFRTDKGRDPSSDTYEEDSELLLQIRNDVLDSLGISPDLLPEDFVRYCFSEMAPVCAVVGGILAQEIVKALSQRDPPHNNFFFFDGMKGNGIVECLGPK
T5 sequence (Q9UBT2 whole entry): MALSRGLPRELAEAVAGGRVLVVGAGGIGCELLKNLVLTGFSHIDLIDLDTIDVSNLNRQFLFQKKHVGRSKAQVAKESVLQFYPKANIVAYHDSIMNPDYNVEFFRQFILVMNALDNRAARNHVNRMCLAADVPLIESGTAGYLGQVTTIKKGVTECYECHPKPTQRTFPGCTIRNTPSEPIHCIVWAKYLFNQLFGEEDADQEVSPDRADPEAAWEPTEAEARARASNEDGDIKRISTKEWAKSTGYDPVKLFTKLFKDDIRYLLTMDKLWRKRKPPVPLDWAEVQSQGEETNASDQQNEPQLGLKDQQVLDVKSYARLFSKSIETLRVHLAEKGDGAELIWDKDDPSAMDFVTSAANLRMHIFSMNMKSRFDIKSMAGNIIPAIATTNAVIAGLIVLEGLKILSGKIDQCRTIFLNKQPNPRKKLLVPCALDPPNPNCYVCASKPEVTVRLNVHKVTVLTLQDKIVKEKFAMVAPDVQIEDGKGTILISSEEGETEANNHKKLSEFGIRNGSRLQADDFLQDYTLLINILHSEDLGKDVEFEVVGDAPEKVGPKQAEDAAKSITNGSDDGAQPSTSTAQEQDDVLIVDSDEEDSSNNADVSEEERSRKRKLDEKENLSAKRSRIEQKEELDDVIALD

[10] = target: T5, SUMO-activating enzyme; test: blockers of SAE1/SAE2–UBC9 SUMO transfer – biochemical, HTRF, uHTS, primary screen (AID 2006); type: protein-complex assay
[11] = target: T6, Low molecular weight phosphotyrosine protein phosphatase (Homo sapiens, UniProt P24666); type: functional; conditions: read-out: IC50_Mean;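 further: Dose-response confirmation assay measuring inhibition of LMPTP enzyme activity by fluorescence intensity read-out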
T6 sequence (P24666 whole entry): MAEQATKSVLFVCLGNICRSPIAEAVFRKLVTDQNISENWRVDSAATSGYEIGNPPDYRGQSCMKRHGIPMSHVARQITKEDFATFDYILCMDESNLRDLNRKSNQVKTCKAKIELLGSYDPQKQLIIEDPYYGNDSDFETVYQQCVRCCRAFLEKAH

[12] = target: T7, Carboxy-terminal domain RNA polymerase II polypeptide A small phosphatase 1 (Homo sapiens, UniProt Q9GZU7); test: CTDSP1 inhibitors, concentration-response, biochemical, absorbance readout, ultra-high-throughput screen actives (AID 540297); type: functional
T7 sequence (Q9GZU7 whole entry): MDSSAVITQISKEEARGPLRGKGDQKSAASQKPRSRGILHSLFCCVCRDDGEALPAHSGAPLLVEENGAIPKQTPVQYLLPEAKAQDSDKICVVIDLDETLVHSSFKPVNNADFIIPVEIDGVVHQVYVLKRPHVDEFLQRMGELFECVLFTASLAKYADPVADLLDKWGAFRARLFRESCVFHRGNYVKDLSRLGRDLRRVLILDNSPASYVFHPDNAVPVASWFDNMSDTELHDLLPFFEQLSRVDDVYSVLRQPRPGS

[13] = target: T8, Tyrosine-protein phosphatase non-receptor type 5 (Homo sapiens, UniProt P54829); test: PTPN5 enzyme inhibition – biochemical, fluorescence intensity, uHTS hits, confirmation (AID 602372); type: functional; conditions: read-out: IC50_Mean
T8 sequence (P54829 whole entry): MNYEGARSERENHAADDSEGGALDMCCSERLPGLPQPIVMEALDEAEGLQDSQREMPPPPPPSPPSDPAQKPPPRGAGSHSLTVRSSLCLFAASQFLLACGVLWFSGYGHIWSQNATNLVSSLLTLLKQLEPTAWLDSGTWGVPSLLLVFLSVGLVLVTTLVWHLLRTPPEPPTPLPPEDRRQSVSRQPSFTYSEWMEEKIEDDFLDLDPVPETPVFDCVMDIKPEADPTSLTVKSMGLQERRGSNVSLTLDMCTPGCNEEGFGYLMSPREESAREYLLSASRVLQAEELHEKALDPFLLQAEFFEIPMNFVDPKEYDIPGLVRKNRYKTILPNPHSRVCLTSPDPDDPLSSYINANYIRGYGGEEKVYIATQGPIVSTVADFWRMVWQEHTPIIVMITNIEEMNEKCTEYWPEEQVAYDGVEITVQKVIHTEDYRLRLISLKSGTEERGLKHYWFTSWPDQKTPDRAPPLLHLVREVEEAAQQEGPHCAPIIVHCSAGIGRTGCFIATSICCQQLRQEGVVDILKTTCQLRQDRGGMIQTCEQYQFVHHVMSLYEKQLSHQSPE

COc1ccc(CN2C(=O)/C(=C/c3ccc(-c4ccc(Cl)c(C(=O)O)c4)o3)SC2=S)cc1
active: IC50 [1] 8.93 µM | IC50 [2] 3.13 µM | IC50 [3] 16.4 µM | IC50 [4] 331 nM | IC50 [5] 44.5 µM

O=C(COC(=O)c1n[nH]c2ccccc12)c1cccc(Br)c1
inactive: EC50 [6] > 80 µM

N=C1S/C(=C\c2ccc(O)cc2)C(=O)N1c1ccc(F)cc1
inactive: IC50 [11] 32.9 µM
active: IC50 [7] 2.2 µM | IC50 [8] 2.29 µM | IC50 [9] 4.87 µM | IC50 [10] 23.9 µM | IC50 [12] 5.84 µM | IC50 [13] 14.1 µM
